This is an account of results in PMC5848512, “The Penicillium chrysogenum transporter PcAraT enables high-affinity, glucose-insensitive L-arabinose transport in Saccharomyces cerevisiae” (Biotechnology for Biofuels, 2018).

Molecules are shown by their SMILES.

One experiment addresses T1, PcAraT (Penicillium rubens, UniProt B6HE12).
T1 construct: gene Pc20g01790; full-length ORF, codon-pair optimized synthetic gene, pRS313-PcaraT (HXT7 promoter) in S. cerevisiae DS68625 (hxt1-7, gal2 deleted)
T1 sequence (B6HE12 1-511): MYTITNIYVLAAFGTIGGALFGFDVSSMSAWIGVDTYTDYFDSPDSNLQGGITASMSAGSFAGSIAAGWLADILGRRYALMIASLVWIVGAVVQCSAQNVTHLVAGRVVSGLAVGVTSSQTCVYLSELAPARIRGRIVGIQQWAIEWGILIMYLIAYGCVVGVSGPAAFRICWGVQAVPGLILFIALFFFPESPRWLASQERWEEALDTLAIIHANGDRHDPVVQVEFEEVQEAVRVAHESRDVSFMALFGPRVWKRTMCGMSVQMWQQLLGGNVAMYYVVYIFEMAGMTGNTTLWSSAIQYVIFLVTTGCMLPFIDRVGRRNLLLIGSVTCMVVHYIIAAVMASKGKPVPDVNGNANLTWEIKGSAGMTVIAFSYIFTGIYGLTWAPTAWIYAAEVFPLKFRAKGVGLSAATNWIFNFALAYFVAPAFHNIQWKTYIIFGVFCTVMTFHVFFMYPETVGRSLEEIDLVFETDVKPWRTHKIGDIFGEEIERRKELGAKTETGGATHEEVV
Kind of experiment: inhibition of […]-L-arabinose uptake in transporter-deleted yeast cells. The format is cell-based.

The target of a further experiment is T2, Gal2 (Saccharomyces cerevisiae, UniProt P13181).
T2 construct: full-length, pRS313-GAL2 (HXT7 promoter) in S. cerevisiae DS68625 (hxt1-7, gal2 deleted)
T2 sequence (P13181 1-574): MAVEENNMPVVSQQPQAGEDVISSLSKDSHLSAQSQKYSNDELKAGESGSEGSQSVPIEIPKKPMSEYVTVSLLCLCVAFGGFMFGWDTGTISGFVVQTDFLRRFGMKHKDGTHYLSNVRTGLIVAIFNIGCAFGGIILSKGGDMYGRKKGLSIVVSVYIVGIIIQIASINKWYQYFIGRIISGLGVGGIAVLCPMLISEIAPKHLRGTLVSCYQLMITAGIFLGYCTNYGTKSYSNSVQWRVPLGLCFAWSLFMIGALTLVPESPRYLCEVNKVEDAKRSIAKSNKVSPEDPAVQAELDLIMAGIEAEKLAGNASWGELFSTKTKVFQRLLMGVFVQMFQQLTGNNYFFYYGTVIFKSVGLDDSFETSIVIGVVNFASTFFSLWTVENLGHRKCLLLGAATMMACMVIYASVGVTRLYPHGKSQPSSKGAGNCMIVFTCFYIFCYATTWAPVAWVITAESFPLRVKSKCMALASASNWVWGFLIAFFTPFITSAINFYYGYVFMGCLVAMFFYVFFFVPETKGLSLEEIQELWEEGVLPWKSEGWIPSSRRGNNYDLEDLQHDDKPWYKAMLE
The experiment is described as above. Type of experiment: cell-based.

As to `OC[C@H]1OC(O)[C@H](O)[C@@H](O)[C@@H]1O` (stereo partly drawn) [D-glucose], the inhibition at 100000 µM on PcAraT stood at 63%; against Gal2, 85%.

In the case of `OC1OC[C@@H](O)[C@H](O)[C@H]1O` (stereo partly drawn) [D-xylose], the inhibition at 100000 µM on PcAraT was determined as 22%; at Gal2, 29%.
